{
  "source": "patent US8575215B2",
  "about": "“Treatment of neurodegenerative and cardiovascular disorders” (priority 2001, dated 2013)",
  "key": {"[1]": {"system": "cerebellar granule neurons (CGN) culture", "assay": "NO-induced cell death on cultured neurons", "type": "cell-based", "settings": "Neuron, cell death induced by nitric oxide, concentration-dependent, read-out: IC50 for blocking nitric oxide-induced neuron cell death", "description": "Efficacy of caffeic acid phenethyl ester on treating neurodegenerative disorders as well as other disorders related to NO-induced cell death was assessed by testing its ability to block NO-induced cell death on cultured neurons according to a method described in Du, et al., Proc Natl Acad Sci, 2001, 98, 14669-14674."}, "[2]": {"system": "cerebellar granule neurons (CGN) culture", "assay": "6-hydroxydopamine-induced neurotoxicity on cultured neurons", "type": "cell-based", "settings": "6-hydroxydopamine used to induce neurotoxicity"}, "[3]": {"system": "TH-positive neurons in the substantia nigra pars compacta (SNpc)", "assay": "MPTP mouse model, stereological count of TH-positive neurons in SNpc", "type": "in vivo, mice", "description": "Caffeic acid phenethyl ester was evaluated for its efficacy in treating a neurodegenerative disorder in mice. Three groups of eight-week-old male C57B1/6 mice (Taconic Farms Inc., Germantown, N.Y.), 5-7 per group, were used. A group of mice were administered for 9 days with caffeic acid phenethyl ester (5 or 20 mg/kg/day in 10% alcohol by oral gavage, or 40 mg/kg/day in 10% alcohol by intraperitoneal injection). As a control, a second group of mice were administered with 10% alcohol free of caffeic acid phenethyl ester. These two groups of mice then received four intraperitoneal injections of 1-methyl-4-phenyl-1,2,3,6-tetrahydropyridine (“MPTP”)-HCl (20 mg/kg of free base) in saline at 2 hour intervals in a single day, as described in Liberatore, et al., Nat Med, 1999, 5, 1403-1409. Seven days after the last administration of MPTP, the mice were anesthetized by halothane inhalation. […] They were then incubated with rabbit polyclonal anti-tyrosine hydroxylase (anti-TH) antibody (1:2,500, CALBIOCHEM, La Jolla, Calif.), goat biotinylated-conjugated polyclonal anti-rabbit antibody (1:250; Vector Laboratories, Burlingame, Calif.), horseradish-peroxidase conjugated avidin/biotin complex (VECTASTAIN ABC Reagent, Vector Laboratories), and successively exposed to diaminobenzidine for TH-immunohistochemistry analysis and stereological quantification of TH-positive neurons. […]"}, "[4]": {"system": "striatal levels of dopamine, DOPAC and HVA", "assay": "MPTP mouse model, striatal levels of dopamine and metabolites by HPLC", "type": "in vivo, mice", "settings": "40 mg/kg intraperitoneally, 48 hours after MPTP", "description": "Caffeic acid phenethyl ester was evaluated for its efficacy in treating a neurodegenerative disorder in mice. Three groups of eight-week-old male C57B1/6 mice (Taconic Farms Inc., Germantown, N.Y.), 5-7 per group, were used. A group of mice were administered for 9 days with caffeic acid phenethyl ester (5 or 20 mg/kg/day in 10% alcohol by oral gavage, or 40 mg/kg/day in 10% alcohol by intraperitoneal injection). As a control, a second group of mice were administered with 10% alcohol free of caffeic acid phenethyl ester. These two groups of mice then received four intraperitoneal injections of 1-methyl-4-phenyl-1,2,3,6-tetrahydropyridine (“MPTP”)-HCl (20 mg/kg of free base) in saline at 2 hour intervals in a single day, as described in Liberatore, et al., Nat Med, 1999, 5, 1403-1409. The striatal levels of dopamine and its metabolites, dihydroxyphenylacetic acid (DOPAC) and homovanillic acid (HVA), were also determined by HPLC with electrochemical detector. See, e.g., Du, et al., Proc Natl Acad Sci, 2001, 98, 14669-14674."}, "[5]": {"system": "isolated working rabbit heart", "assay": "Isolated working rabbit heart model of ischaemia", "type": "in vivo", "settings": "30 mg/kg intraperitoneal injection, p<0.05", "description": "An isolated working rabbit heart model was use to define the cardioprotective effects (function, metabolic and ultrastructure) of caffeic acid phenethyl ester during ischaemia by the method described in Choong, et al., J Cardiovasc Surg (Torino), 1993 October, 34(5):423-433. More specifically, hearts (n=7 for each group) were arrested with and exposed to reinfusion (45 min) throughout the ischaemic period with a cold (4° C.) cardioplegic solution. […] The release of lactate dehydrogenase decreased during 40-minute ischaemic arrest (55.14+/-8.65 vs 19.33+/-7.4 IU/L perfusate for control and treatment, respectively; p<0.05). See […] et al., J Cardiovasc Pharmacol, 1999 October; 34(4):604-611."}},
  "data": [
    {"smiles": "O=C(/C=C/c1ccc(O)c(O)c1)OCCc1ccccc1", "note": "[caffeic acid phenethyl ester]", "values": [
      {"measurement": "IC50", "setting": "[1]", "value": "~1000", "unit": "nM"},
      {"measurement": "neuroprotective effect against 6-hydroxydopamine-induced neurotoxicity", "setting": "[2]", "value": "neuroprotective effect"},
      {"measurement": "number of TH-positive neurons in SNpc, as compared with saline-only mice", "setting": "[3]; C57B1/6 mice, 5 or 20 mg/kg/day oral or 40 mg/kg/day i.p. for 9 days, then MPTP 4x20 mg/kg, 7 days after MPTP, MPTP control approximately 49%", "value": "up to 100%"},
      {"measurement": "effect of compound alone on number of TH-positive neurons", "setting": "[3]; treatment alone for nine days, no MPTP", "value": "did not significantly alter"},
      {"measurement": "MPTP-induced reduction of striatal HVA level", "setting": "[4]; MPTP control decreased by 35%", "value": 16, "unit": "%"},
      {"measurement": "MPTP-induced reduction of striatal DOPAC level", "setting": "[4]; MPTP control decreased by 46%", "value": "−2", "unit": "%"},
      {"measurement": "MPTP-induced reduction of striatal dopamine level", "setting": "[4]; MPTP control decreased by 62%", "value": 3, "unit": "%"},
      {"measurement": "postischaemic recovery of cardiac output", "setting": "[5]; n=7, control 71.48+/−9.66%", "value": "90.83+/−3.2%"},
      {"measurement": "release of lactate dehydrogenase during 40-minute ischaemic arrest", "setting": "[5]; control 55.14+/−8.65", "value": "19.33+/−7.4 IU/L perfusate"}
    ]}
  ]
}
